Assay results as given in ChEMBL document CHEMBL3286195, “Discovery of (10R)-7-amino-12-fluoro-2,10,16-trimethyl-15-oxo-10,15,16,17-tetrahydro-2H-8,4-(metheno)pyrazolo[4,3-h][2,5,11]-benzoxadiazacyclotetradecine-3-carbonitrile (PF-06463922), a macrocyclic inhibitor of anaplastic lymphoma kinase (ALK) and c-ros oncogene 1 (ROS1) with preclinical brain …” (J Med Chem, 2014).
Each block holds one molecule with its values, some of them ahead of it.

Key:
[1] = physchem; conditions: octanol/water, pH 7.4
[2] = in vitro; conditions: human, liver microsomes
Description: Apparent total intrinsic clearance in human liver microsomes

[3] = molecular target: BDNF/NT-3 growth factors receptor (Homo sapiens, UniProt Q16620)
Description: Inhibition of TRKB (unknown origin) by off-chip mobility shift assay

[4] = test system: MDR1; assay: in vitro; conditions: dog, MDCK-MDR1, pH 7.4
Description: Efflux ratio of permeability from basolateral to apical side to apical to basolateral side of MDCK cells expressing MDR1 at pH 7.4

[5] = molecular target: ALK tyrosine kinase receptor (Homo sapiens, UniProt Q9UM73, L1196M)
[6] = molecular target: ALK tyrosine kinase receptor (Homo sapiens, UniProt Q9UM73)
[7] = AUC in rat plasma at 10 mg/kg, po; assay type: ADME, organism-based; parameters: dose 10 mg/kg, route oral
[8] = Volume of distribution at steady state in rat at 1 mg/kg, iv qd; assay type: ADME, organism-based; parameters: dose 1 mg/kg, route intravenous; conditions: in vivo, read-out: Vdss
[9] = Fraction unbound in rat plasma at 2.4 uM; assay type: ADME, cell-free
[10] = test system: Plasma; assay: Average plasma concentration in rat at 10 mg/kg, po qd; assay type: ADME, organism-based; parameters: dose 10 mg/kg, route oral; conditions: in vivo
[11] = Oral bioavailability in rat at 10 mg/kg qd; assay type: ADME, organism-based; conditions: in vivo
[12] = AUC in rat brain at 10 mg/kg, po; assay type: ADME, organism-based; parameters: dose 10 mg/kg, route oral
[13] = molecular target: NT-3 growth factor receptor (Homo sapiens, UniProt Q16288)
Description: Inhibition of NRTK3 (unknown origin) by TR-FRET-based Z'-LYTE assay

[14] = fAUC in rat CSF at 10 mg/kg, po; assay type: ADME, organism-based, Cerebrospinal fluid; parameters: dose 10 mg/kg, route oral; conditions: in vivo
[15] = Half life in rat at 1 mg/kg, iv qd; assay type: ADME, organism-based; parameters: dose 1 mg/kg, route intravenous; conditions: in vivo
[16] = molecular target: Tyrosine-protein kinase Fes/Fps (Homo sapiens, UniProt P07332); assay: Inhibition of FES (unknown origin) by TR-FRET-based Z'-LYTE assay
[17] = molecular target: Protein-tyrosine kinase 2-beta (Homo sapiens, UniProt Q14289)
Description: Inhibition of PTK2B (unknown origin) by TR-FRET-based Z'-LYTE assay

[18] = test system: Plasma; assay: fAUC in rat plasma at 10 mg/kg, po; assay type: ADME, organism-based; parameters: dose 10 mg/kg, route oral; conditions: in vivo
[19] = molecular target: Tyrosine-protein kinase FRK (Homo sapiens, UniProt P42685); assay: Inhibition of FRK (unknown origin) by TR-FRET-based Z'-LYTE assay
[20] = Tmax in rat at 10 mg/kg, po qd; assay type: ADME, organism-based; parameters: dose 10 mg/kg, route oral; conditions: in vivo
[21] = test system: Brain; assay: fAUC in rat brain at 10 mg/kg, po; assay type: ADME, organism-based; parameters: dose 10 mg/kg, route oral; conditions: in vivo
[22] = Fraction unbound in rat brain at 2.4 uM; assay type: ADME, tissue-based
[23] = molecular target: Leukocyte tyrosine kinase receptor (Homo sapiens, UniProt P29376); assay: Inhibition of LTK (unknown origin) by TR-FRET-based Z'-LYTE assay
[24] = AUC in rat CSF at 10 mg/kg, po; assay type: ADME, organism-based, Plasma; parameters: dose 10 mg/kg, route oral
[25] = molecular target: Focal adhesion kinase 1 (Homo sapiens, UniProt Q05397)
Description: Inhibition of PTK2 (unknown origin) by TR-FRET-based Z'-LYTE assay

[26] = molecular target: Activated CDC42 kinase 1 (Homo sapiens, UniProt Q07912)
Description: Inhibition of TNK2 (unknown origin) by TR-FRET-based Z'-LYTE assay

[27] = molecular target: Tyrosine-protein kinase Fer (Homo sapiens, UniProt P16591); assay: Inhibition of FER (unknown origin) by TR-FRET-based Z'-LYTE assay
[28] = Cmax in rat at 10 mg/kg, po qd; assay type: ADME, organism-based; parameters: dose 10 mg/kg, route oral; conditions: in vivo
[29] = AUC (0 to 24 hrs) in rat at 10 mg/kg, po qd; assay type: ADME, organism-based; parameters: time < 24 hr, dose 10 mg/kg, route oral; conditions: plasma
[30] = AUC (infinity) in rat at 1 mg/kg, iv qd; assay type: ADME, organism-based; parameters: time infinity, dose 1 mg/kg, route intravenous; conditions: plasma
[31] = test system: Rattus norvegicus; assay: fCmax in rat at 10 mg/kg, po qd; assay type: ADME, organism-based; parameters: dose 10 mg/kg, route oral; conditions: in vivo
[32] = molecular target: High affinity nerve growth factor receptor (Homo sapiens, UniProt P04629); assay: Inhibition of […] (unknown origin) by TR-FRET-based Z'-LYTE assay
[33] = Plasma clearance in rat at 1 mg/kg, iv qd; assay type: ADME, organism-based; parameters: dose 1 mg/kg, route intravenous

logD [1]: 3
SMILES: N#Cc1[nH]nc2c1-c1cnc(N)c(c1)OCc1cc(F)ccc1OCC2

logD [1]: 2.9 | Ki [3]: 0.4 nM | CLint scaled [2]: 14.6 mL/min/kg
SMILES: C[C@H]1Oc2cc(cnc2N)-c2c(C3CC3)nn(C)c2CN(C)C(=O)c2ccc(F)cc21

logD [1]: 2.2 | CLint scaled [2]: 8 mL/min/kg
SMILES: Cc1nn(C)c2c1-c1cnc(N)c(c1)O[C@@H](C)c1cc(F)ccc1C(=O)N(C)C2

logD [1]: 3.8
SMILES: C[C@H]1Oc2cc(cnc2N)-c2c(nn(C)c2C#N)CCCOc2ccc(F)cc21

logD [1]: 3.3
SMILES: C[C@H]1Oc2cc(cnc2N)-c2c(nn(C)c2C#N)CCOc2ccc(F)cc21

logD [1]: 3.6
SMILES: N#Cc1[nH]nc2c1-c1cnc(N)c(c1)OCc1cc(F)ccc1OCCC2

logD [1]: 2.2 | Ki [3]: 0.5 nM | CLint scaled [2]: 8.6 mL/min/kg
SMILES: Cc1nn(C)c2c1-c1cnc(N)c(c1)O[C@H](C)c1cc(F)ccc1C(=O)N(C)C2

logD [1]: 3.4
SMILES: Cn1ncc2c1-c1cnc(N)c(c1)OCc1cc(F)ccc1OCCC2

AUC [7]: 30.7 µM·h | Vd [8]: 2.7 L/kg | fraction unbound at 2.4 µM [9]: 0.36 | Cave [10]: 551 nM | bioavailability [11]: 100% | AUC [12]: 19.6 µM·h | IC50 [13]: 46 nM | fAUC [14]: 3.475 µM·h | half-life [15]: 2.7 h | IC50 [16]: 6 nM | IC50 [17]: 14 nM | logD [1]: 2.3 | fAUC [18]: 11.052 µM·h | IC50 [19]: 53 nM | Tmax [20]: 1.3 h | CLint scaled [2]: < 8 mL/min/kg | fAUC [21]: 2.355 µM·h | fraction unbound at 2.4 µM [22]: 0.12 | IC50 [23]: 2.7 nM | AUC [24]: 3.48 µM·h | IC50 [25]: 17 nM | IC50 [26]: 17 nM | IC50 [27]: 3.3 nM | Cmax [28]: 1730 ng/mL | AUC at 24 h [29]: 14900 ng·h/mL | AUC(0-inf) [30]: 1150 ng·h/mL | fCmax [31]: 1530 nM | IC50 [32]: 24 nM | clearance [33]: 15.5 mL/min/kg
SMILES: C[C@H]1Oc2cc(cnc2N)-c2c(nn(C)c2C#N)CN(C)C(=O)c2ccc(F)cc21 [LORLATINIB]

Further lines, the molecule ahead of its results:

SMILES: Cc1nc([C@](C)(O)CO)sc1-c1cnc(N)c(O[C@H](C)c2cc(F)ccc2-n2nccn2)c1
CLint scaled [2]: 13 mL/min/kg

SMILES: C[C@H]1Oc2nc(cnc2N)-c2cc(S(C)(=O)=O)ccc2CN(C)C(=O)c2ccc(F)cc21
logD [1]: 2.2 | CLint scaled [2]: 8 mL/min/kg

SMILES: C[C@H]1Oc2cc(cnc2N)-c2cc(S(C)(=O)=O)ccc2CN(C)C(=O)c2ccc(F)cc21
logD [1]: 1.8 | CLint scaled [2]: 9.1 mL/min/kg

SMILES: COc1ccc(F)cc1[C@@H](C)Oc1cc(-c2cnnn2C)cnc1N
logD [1]: 2.4 | CLint scaled [2]: 25 mL/min/kg

SMILES: Cn1ncc2c1-c1cnc(N)c(c1)OCc1cc(F)ccc1OCCCC2
logD [1]: 3.1

SMILES: Cc1nn(C)c2c1-c1cnc(N)c(n1)O[C@H](C)c1cc(F)ccc1C(=O)N(C)C2
logD [1]: 2.5 | CLint scaled [2]: 8 mL/min/kg

SMILES: CNC(=O)c1ccc(F)cc1[C@@H](C)Oc1cc(-c2cn(C)nc2C)cnc1N
logD [1]: 2.1 | CLint scaled [2]: 28 mL/min/kg

SMILES: Cc1nn(C)c2c1-c1cnc(N)c(n1)O[C@@H](C)c1cc(F)ccc1C(=O)N(C)C2
logD [1]: 2.5 | CLint scaled [2]: 9.7 mL/min/kg

SMILES: Cc1cnc2nc3c(n2c1)-c1cnc(N)c(c1)O[C@H](C)c1cc(F)ccc1C(=O)N(C)C3
logD [1]: 1.7 | Ki [3]: 77 nM | CLint scaled [2]: < 8 mL/min/kg | efflux ratio [4]: 20.2

SMILES: COc1ncccc1-c1cnc(N)c(O[C@H](C)c2cc(F)ccc2-n2nccn2)n1
logD [1]: 4 | CLint scaled [2]: 41 mL/min/kg

SMILES: C[C@@H](Oc1cc(-c2cccc(S(C)(=O)=O)c2)cnc1N)c1cc(F)ccc1-n1nccn1
logD [1]: 3.4 | CLint scaled [2]: 10 mL/min/kg

SMILES: C[C@H]1Oc2nc(cnc2N)-c2c(nc3ccc(C#N)cn23)CN(C)C(=O)c2ccc(F)cc21
logD [1]: 2.4 | Ki [3]: 65 nM | CLint scaled [2]: < 8 mL/min/kg

SMILES: C[C@@H](Oc1cc(-c2cnnn2C)cnc1N)c1cc(F)ccc1-n1nccn1
CLint scaled [2]: 8 mL/min/kg

SMILES: Cc1nn(C)cc1-c1cnc(N)c(O[C@H](C)c2cc(F)ccc2-n2nccn2)c1
CLint scaled [2]: 66 mL/min/kg

SMILES: COc1nn(C)c2c1-c1cnc(N)c(n1)O[C@H](C)c1cc(F)ccc1C(=O)N(C)C2
logD [1]: 2.7 | CLint scaled [2]: 23.5 mL/min/kg

SMILES: Cc1nn(C)cc1-c1cnc(N)c(O[C@H](C)c2cc(F)ccc2C(=O)N(C)C)c1
logD [1]: 2.1 | CLint scaled [2]: 58 mL/min/kg | efflux ratio [4]: 7.6 | Ki [5]: 310 nM | Ki [6]: 22 nM

SMILES: CNC(=O)c1ccc(F)cc1[C@@H](C)Oc1nc(-c2cccnc2OC)cnc1N
logD [1]: 3 | CLint scaled [2]: 76 mL/min/kg

SMILES: COc1nn(C)c2c1-c1cnc(N)c(c1)O[C@H](C)c1cc(F)ccc1C(=O)N(C)C2
logD [1]: 2.4 | CLint scaled [2]: 8.3 mL/min/kg

SMILES: Cc1nn(C)c2c1-c1cnc(N)c(c1)OCc1cc(F)ccc1C(=O)N(C)C2
logD [1]: 2 | CLint scaled [2]: 8.4 mL/min/kg
